Values of other authors in patent US7902399B2, “Fatty acids analogous” (Thia Medica AS, priority 2000, dated 2011).

Conditions: rat

In the case of `CCCCCCCCCCCCCCSCC(=O)O` [TTA], the “metabolite formation in vivo (Δ9-desaturase)” value is given as “a desaturated product of TTA is formed in vivo”.
